Data taken from patent US10874743B2, “IRAK degraders and uses thereof” (Kymera Therapeutics, Inc., priority 2017, dated 2020).

Biological target: T1, IRAK4 (Homo sapiens, UniProt Q9NWZ3)
T1 sequence (Q9NWZ3 1-460): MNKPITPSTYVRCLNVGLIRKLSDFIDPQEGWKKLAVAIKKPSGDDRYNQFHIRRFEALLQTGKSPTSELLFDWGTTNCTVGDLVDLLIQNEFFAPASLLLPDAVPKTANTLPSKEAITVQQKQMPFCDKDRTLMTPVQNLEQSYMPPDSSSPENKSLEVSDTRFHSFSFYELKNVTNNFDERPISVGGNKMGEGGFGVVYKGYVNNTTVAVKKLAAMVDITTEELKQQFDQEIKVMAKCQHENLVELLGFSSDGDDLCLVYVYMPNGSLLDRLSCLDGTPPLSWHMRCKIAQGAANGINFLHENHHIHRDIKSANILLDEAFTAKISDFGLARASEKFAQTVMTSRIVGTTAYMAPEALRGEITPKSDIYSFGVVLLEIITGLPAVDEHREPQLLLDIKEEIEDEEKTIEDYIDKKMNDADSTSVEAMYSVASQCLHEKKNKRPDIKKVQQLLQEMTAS
Assay: OCI-LY-10 degradation assay (western blot, % IRAK4 degraded after 4 hours)
Assay type: cell-based
Parameters: endogenous in cells; host or cells: OCI-LY10
Conditions: OCI-LY10 cells; for OCI-LY10 % IRAK4 Degradation: IRAK4 degraded after 4 hours, western blot; for OCI-LY10 % IRAK4 Degradation (0.01 uM) / OCI-LY10 % IRAK4 Degradation (0.1 uM) / OCI-LY10 % IRAK4 Degradation (1 uM): 4 hours; for OCI-LY10 % IRAK4 Degradation (0.01 uM): 0.01 uM compound; for OCI-LY10 % IRAK4 Degradation (0.1 uM): 0.1 uM compound; for OCI-LY10 % IRAK4 Degradation (1 uM): 1 uM compound
Summary of the method: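 IRAK4 loss after 4 h at 37° C was scored A (>50%), B (>20-50%) or C (<20%) from infrared western blots of RIPA lysates, 20-25 μg protein per lane. Compound was applied at 0.003-10 μM final to OCI-LY10 cells cultured in RPMI-1640 with 20% FBS and 55 μM 2-ME.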

Row | Structure (SMILES) | OCI-LY10 % IRAK4 Degradation | OCI-LY10 % IRAK4 Degradation (0.01 uM) | OCI-LY10 % IRAK4 Degradation (0.1 uM) | OCI-LY10 % IRAK4 Degradation (1 uM)
1 | CC(OCCOCCOCCOCCOCCNc1cccc2c1C(=O)N(C1CCC(=O)NC1=O)C2=O)C(F)CNC(=O)c1cnc(-n2ncc3cc(C#N)cnc32)cc1NC1CC1 (centres unmarked) [I-66] | C (<20% degradation) | – | – | –
2 | N#Cc1cnc2c(cnn2-c2cc(NC3CC3)c(C(=O)N[C@H]3CC[C@H](C(=O)NCCOCCOCCOCCOCCNc4cccc5c4C(=O)N(C4CCC(=O)NC4=O)C5=O)CC3)cn2)c1 (some centres unmarked) [I-22, 6-(5-cyano-1H-pyrazolo[3,4-b]pyridin-1-yl)-4-(cyclopropylamino)-N-((1r,4r)-4-((14-((2-(2,6-dioxopiperidin-3-yl)-1,3-dioxoisoindolin-4-yl)amino)-3,6,9,12-tetraoxatetradecyl)carbamoyl)cyclohexyl)nicotinamide] | C (<20% degradation) | – | – | –
3 | CN(CCNCCCc1ccc2c(c1)C(=O)N(C1CCC(=O)NC1=O)C2=O)C(=O)c1ccc(-n2cc(NC(=O)c3coc(-c4ccncc4)n3)c(C(F)F)n2)cc1 (centres unmarked) [I-378] | – | C (<20% degradation) | C (<20% degradation) | A (>50% degradation)
4 | N#Cc1ccc2ncc(-c3cccc(NC4CCN(CCCCCOCCOCCCCCNC(=O)COc5cccc6c5C(=O)N(C5CCC(=O)NC5=O)C6=O)C4)n3)n2c1 (centres unmarked) [I-204] | C (<20% degradation) | – | – | –
5 | N#Cc1cnc2c(cnn2-c2cc(NC3CC3)c(C(=O)NCC(F)CCOCCOCCOCCNc3cccc4c3C(=O)N(C3CCC(=O)NC3=O)C4=O)cn2)c1 (centres unmarked) [I-88] | C (<20% degradation) | – | – | –
6 | O=C1CCC(N2C(=O)c3cccc(NCCCCCNCCNC(=O)c4ccc(-n5cc(NC(=O)c6coc(-c7ccnc(NCC8CC8)c7)n6)c(C(F)F)n5)cc4)c3C2=O)C(=O)N1 (centres unmarked) [I-245] | – | C (<20% degradation) | B (>20-50% degradation) | A (>50% degradation)
7 | NC(=O)c1nn(-c2ccc(C(=O)NCCOCCOCCNc3cccc4c3C(=O)N(C3CCC(=O)NC3=O)C4=O)nc2)cc1NC(=O)c1coc(-c2ccnc(NCC(F)(F)F)c2)n1 (centres unmarked) [I-143] | B (>20-50% degradation) | – | – | –
8 | CN(CCCc1ccc2c(c1)C(=O)N(C1CCC(=O)NC1=O)C2=O)Cc1ccc(-n2cc(NC(=O)c3coc(-c4ccnc(NCC5CC5)c4)n3)c(C(F)F)n2)cc1 (centres unmarked) [I-369] | – | B (>20-50% degradation) | B (>20-50% degradation) | B (>20-50% degradation)
9 | Cc1ncsc1-c1ccc(CNC(=O)C2C[C@@H](O)CN2C(=O)[C@@H](NC(=O)COCCOCCOCCOCCOC(C)C(F)CNC(=O)c2cnc(-n3ncc4cc(C#N)cnc43)cc2NC2CC2)C(C)(C)C)cc1 (some centres unmarked) [I-121] | C (<20% degradation) | – | – | –
10 | CC(=O)O[C@@H]1C[C@@H](C(=O)NCc2ccc(-n3cc(NC(=O)c4coc(-c5ccnc(NCC6CC6)c5)n4)c(C(F)F)n3)cc2)N(C(=O)[C@@H](NC(=O)COCCOCCOCCNc2cccc3c2C(=O)N(C2CCC(=O)NC2=O)C3=O)C(C)(C)C)C1 (some centres unmarked) [I-285] | – | C (<20% degradation) | C (<20% degradation) | B (>20-50% degradation)
11 | NC(=O)c1nn(-c2ccc(C(=O)NCCOCCOCCCc3cccc4c3C(=O)N(C3CCC(=O)NC3=O)C4=O)cc2)cc1NC(=O)c1coc(-c2ccnc(NCC(F)(F)F)c2)n1 (centres unmarked) [I-233] | – | C (<20% degradation) | A (>50% degradation) | A (>50% degradation)
12 | Cc1ncsc1-c1ccc(CNC(=O)[C@@H]2C[C@@H](O)CN2C(=O)[C@@H](NC(=O)COCCCCCCCCNC(=O)c2ccc(-n3cc(NC(=O)c4coc(-c5ccnc(NCC(F)(F)F)c5)n4)c(C(N)=O)n3)cc2)C(C)(C)C)cc1 [I-125, N-[3-carbamoyl-1-[4-[8-[2-[[(1S)-1-[(2S,4R)-4-hydroxy-2-[[4-(4-methylthiazol-5-yl)phenyl]methylcarbamoyl]pyrrolidine-1-carbonyl]-2,2-dimethyl-propyl]amino]-2-oxo-ethoxy]octylcarbamoyl]phenyl]pyrazol-4-yl]-2-[2-(2,2,2-trifluoroethylamino)-4-pyridyl]oxazole-4-carboxamide] | C (<20% degradation) | – | – | –
13 | CN(CCOCCCc1ccc2c(c1)C(=O)N(C1CCC(=O)NC1=O)C2=O)Cc1ccc(-n2cc(NC(=O)c3coc(-c4ccnc(NCC5CC5)c4)n3)c(C(F)F)n2)cc1 (centres unmarked) [I-376] | – | B (>20-50% degradation) | A (>50% degradation) | A (>50% degradation)
14 | O=C1CCC(N2C(=O)c3cccc(NCCOCCN4CCO[C@@H](CNC(=O)c5ccc(-n6cc(NC(=O)c7coc(-c8ccnc(NCC(F)(F)F)c8)n7)c(C(F)F)n6)cc5)C4)c3C2=O)C(=O)N1 (some centres unmarked) [I-282] | – | C (<20% degradation) | C (<20% degradation) | C (<20% degradation)
15 | NC(=O)c1nn(-c2ccc(C(=O)NCCOCCOCCNc3cccc4c3C(=O)N(C3CCC(=O)NC3=O)C4=O)cc2)cc1NC(=O)c1coc(-c2ccnc(C3CC3)c2)n1 (centres unmarked) [I-424] | – | B (>20-50% degradation) | B (>20-50% degradation) | B (>20-50% degradation)
16 | Cn1c(=O)n(C2CCC(=O)NC2=O)c2ccc(CCCOCCOCCNCc3ccc(-n4cc(NC(=O)c5coc(-c6ccnc(NCC7CC7)c6)n5)c(C(F)F)n4)cc3)cc21 (centres unmarked) [I-331] | – | C (<20% degradation) | B (>20-50% degradation) | C (<20% degradation)
17 | O=C1CCC(N2C(=O)c3cccc(OCc4cnnn4CCOCCOCCNCn4cc(NC(=O)c5coc(-c6ccnc(NCC7CC7)c6)n5)c(C(F)F)n4)c3C2=O)C(=O)N1 (centres unmarked) [I-383] | – | C (<20% degradation) | C (<20% degradation) | A (>50% degradation)
18 | O=C1CCC(N2C(=O)c3cccc(NCCOCCOCCNC(=O)c4ccc(-n5cc(NC(=O)c6coc(-c7ccnc(NCC8CC8)c7)n6)c(C(F)(F)F)n5)cc4)c3C2=O)C(=O)N1 (centres unmarked) [I-220] | – | B (>20-50% degradation) | B (>20-50% degradation) | B (>20-50% degradation)
19 | CC(OCCOCCNc1cccc2c1C(=O)N(C1CCC(=O)NC1=O)C2=O)C(F)CNC(=O)c1cnc(-n2ncc3cc(C#N)cnc32)cc1NC1CC1 (centres unmarked) [I-85] | C (<20% degradation) | – | – | –
20 | O=C1CCC(N2C(=O)c3cccc(NCCOCCNC(=O)c4ccc(-n5cc(NC(=O)c6coc(-c7ccnc(NCC8CC8)c7)n6)c(C(F)F)n5)cc4)c3C2=O)C(=O)N1 (centres unmarked) [I-211] | – | B (>20-50% degradation) | B (>20-50% degradation) | B (>20-50% degradation)
